Data: PMC3827198, “Characterisation of AmphiAmR11, an Amphioxus (Branchiostoma floridae) D2-Dopamine-Like G Protein-Coupled Receptor” (PLoS ONE, 2013)
Counter-ions that a name gives are not always drawn. Like-named read-outs stand apart in the source and are kept apart here.

What was measured:
AmphiAmR11 [1] = target: T1, AmphiAmR11 (Branchiostoma floridae, UniProt A0PF35); experiment: Inhibition of forskolin-stimulated cAMP levels in AmphiAmR11-expressing CHO-K1 cells (agonist mode); format: cell-based; details: for Effect on forskolin-stimulated cAMP levels at 1 µM: 1 µM agonist
T1 sequence (A0PF35 entry or part of it): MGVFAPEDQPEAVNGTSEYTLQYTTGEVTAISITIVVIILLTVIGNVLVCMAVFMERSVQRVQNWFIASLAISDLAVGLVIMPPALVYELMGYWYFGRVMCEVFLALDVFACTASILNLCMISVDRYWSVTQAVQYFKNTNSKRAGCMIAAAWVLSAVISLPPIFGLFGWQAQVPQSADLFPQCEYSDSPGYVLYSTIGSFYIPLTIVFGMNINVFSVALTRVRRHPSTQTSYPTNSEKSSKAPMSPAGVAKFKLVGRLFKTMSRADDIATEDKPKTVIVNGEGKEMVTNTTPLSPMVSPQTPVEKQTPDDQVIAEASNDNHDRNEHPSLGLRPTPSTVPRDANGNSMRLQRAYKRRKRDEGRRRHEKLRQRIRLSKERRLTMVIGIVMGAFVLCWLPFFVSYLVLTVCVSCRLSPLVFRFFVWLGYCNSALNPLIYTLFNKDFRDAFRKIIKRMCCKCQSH
Protocol: CHO-K1 cells were maintained in Ham’s F-12 nutrient media (Invitrogen Life Sciences) supplemented with 10% charcoal-stripped foetal bovine serum (CS-FBS) (Hyclone, Cramlington, UK), 50 U/μg penicillin/streptomycin and 4 mM L-glutamine (Invitrogen Life Sciences) in 5% CO2 at 37°C. Stably transfected cell lines were generated by the transfection of CHO-K1 cells using Lipofectamine (Invitrogen Life Sciences) as described previously [8, 9].
cAMP levels in stably transfected CHO-K1 cells were determined as described previously [8, 9, 21], except 100 µM isobutylmethylxanthine (IBMX) was used. cAMP levels are represented as a percentage of basal samples unless otherwise stated. Student’s T-test (two-tailed and unpaired) was used to test for significance. Unless otherwise stated, all data are shown as mean ± SEM. Each data point plotted was the mean of data obtained from at least three experiments. Within each experiment three separate replicate wells were analysed for each condition and the cAMP assays on each of the wells was carried out in duplicate.
Forskolin was used both to increase basal cAMP levels to make it easier to detect increases and decreases in cAMP levels in the same experiments and also to potentiate responses to agonists to more accurately determine their threshold effects [see 22]. A non-saturating 10 µM concentration of forskolin was used.
Figure 1 Effect of biogenic amines and synthetic agonists on forskolin-stimulated cAMP levels in AmphiAmR11-expressing CHO-K1 cells. Cells were pre-incubated with 100 µM IBMX for 20 min, followed by incubation with 10 µM forskolin and 100 µM IBMX in the presence of increasing concentrations of various biogenic amines (A) or synthetic agonists (B) for a further 20 min. Data are expressed as the mean ± SEM. n ≥ 3.

AmphiAmR11 [2] = target: T1, AmphiAmR11; experiment: ERK1/2 phosphorylation in AmphiAmR11-expressing CHO-K1 cells (Western blotting); format: cell-based; details: for Effect of antagonist on ERK1/2 phosphorylation in the absence of dopamine: 1 μM antagonist
AmphiAmR11 [3] = target: T1, AmphiAmR11; experiment: cell-based; format: cell-based
AmphiAmR11 [4] = target: T1, AmphiAmR11; experiment: Calcium mobilisation in AmphiAmR11-expressing CHO-K1 cells (Fura-2, percentage of responding cells per field of view); format: cell-based; details: for Calcium response at 10 nM: 10 nM biogenic amine, compared with dopamine
Protocol: Stably transfected CHO-K1 cells were assayed for changes in intracellular calcium levels using an Olympus Cell^R imaging system and the fluorescent indicator Fura-2, as described previously, with modifications described by Bayliss et al.. At 1 minute into the experiment, a buffer control was added and at 2 minutes into the experiment, the specified concentration of agonist was added. A single coverslip of cells was used per concentration of agonist and the percentage of cells that responded per field of view was calculated. The results from each coverslip gave an n of 1 and each agonist concentration was repeated at least three times on different days.
Figure 6 Effect of biogenic amines and calcium pathway inhibitors on calcium mobilisation in AmphiAmR11-expressing CHO-K1 cells. AmphiAmR11-expressing cells were exposed to increasing concentrations (A) or 10 nM (B) of biogenic amines for 3 minutes and the number of responding cells per field of view were calculated. Data are expressed as the mean ± SEM. n ≥ 3. FOV, field of view; DA, dopamine; TA, tyramine; NA, noradrenaline; Adr, adrenaline; OA, octopamine.

[5] = system: dopamine-induced ERK1/2 activation; experiment: Effect of pertussis toxin and signalling inhibitors on agonist-induced ERK1/2 activation in AmphiAmR11-expressing CHO-K1 cells; format: cell-based, Chinese hamster; details: for Effect of inhibitor on dopamine-induced ERK1/2 phosphorylation: 10 µM inhibitor, 5 minutes
Protocol: Phospho-extracellular signal-related kinase (Phospho-ERK) levels were determined essentially as described previously. Minor modifications have been described. ERK1/2 phosphorylation levels were quantified by densitometry. The developed films were scanned in and analysed using the software program, Aida. The data generated by Aida was then processed using Microsoft Excel. Values for the kinase expression and activity levels were defined as 100% in the control samples. Student’s T-test (two-tailed and unpaired) was used to test for significance.
Figure 5 Effect of pertussis toxin and signalling inhibitors on dopamine-induced ERK1/2 activation in AmphiAmR11-expressing CHO-K1 cells. For the pertussis toxin experiment, AmphiAmR11-expressing CHO-K1 cells were pre-incubated with pertussis toxin (200 ng/ml) for 16 hours prior to serum-starvation for 2 hours in the absence of the toxin. Cells were then stimulated for 5 mins with 10 nM dopamine (open bar) or F-12 Hams control (black bar). For all other inhibitors, AmphiAmR11-expressing CHO-K1 cells were serum starved for 2 hours including incubation with 10 µM inhibitor or F-12 Hams control for the final 20 (AG1296 and AG1478) or 30 (PP2, LY294002, Ro31-8220, U0126, U73122 and U73343) minutes. Cells were then stimulated for 5 minutes with 10 nM dopamine […] in the presence of the inhibitor. Basal measurement in the absence of dopamine and inhibitor (first black bar) and the dopamine-only response in the absence of inhibitor (first open bar) are shown. (A) Representative blots from three or four independent experiments. […] Data are expressed as the mean + SEM. n = 3 - 4. DA, dopamine; PTX, pertussis toxin; Ro, Ro 31-8220; LY, LY294002.
Figure S3. Time courses for the effect of dopamine and tyramine on ERK1/2 phosphorylation in AmphiAmR11-expressing CHO-K1 cells. (A and B) AmphiAmR11-expressing CHO-K1 cells were serum-starved for 2 hours, prior to stimulation with tyramine or dopamine at the specified concentration for the specified length of time. Equal quantities of cell lysates were separated by SDS-PAGE and analysed for pERK or tERK by Western blotting. (C and D): AmphiAmR11-expressing CHO-K1 cells were incubated with pertussis toxin (200 ng/mL) for 16 hours followed by stimulation as described for Figures A and B. (A to D) Representative blot for each condition from three to four independent experiments. (E) Summary of the quantified blots. Data are expressed as the mean ± SEM. n = 3-4. PTX, pertussis toxin; Min, minutes.

AmphiAmR11 [6] = target: T1, AmphiAmR11; experiment: Block of tyramine-induced inhibition of forskolin-stimulated cAMP levels in AmphiAmR11-expressing CHO-K1 cells; format: cell-based; details: 30 nM tyramine
AmphiAmR11 [7] = target: T1, AmphiAmR11; experiment: Block of dopamine-induced ERK1/2 activation in AmphiAmR11-expressing CHO-K1 cells by antagonists; format: cell-based; details: 1 µM antagonist, 10 nM dopamine, 5 min
[8] = 10 µM forskolin, 100 µM IBMX, 20 min, full concentration response curves, read-out: EC50 for decrease in forskolin-stimulated cAMP levels
[9] = 1 µM synthetic agonist, 5 min, dopamine as reference
[10] = 10 µM forskolin, 100 µM IBMX, 20 min
[11] = amines at 100 µM, pertussis toxin 200 ng/mL, 16 hours
[12] = pertussis toxin 200 ng/mL, 16 h, up to 100 µM
[13] = 1 μM antagonist, 10 µM forskolin

Br.C=CCN1CCc2c(cc(O)c(O)c2Cl)C(c2ccccc2)C1 (racemic) [6-Chloro-APB, (±)-6-chloro-7,8-dihydroxy-3-allyl-1-phenyl-2,3,4,5-tetrahydro-^1H-3-benzazepine hydrobromide]
EC50 (AmphiAmR11 [1]; [8]): 2.23 µM
Effect on ERK1/2 phosphorylation at 1 µM (AmphiAmR11 [2]; [9]): less effective than naphazoline, UK14,304 and quinpirole

CC(C)NCC(O)c1ccc(O)c(O)c1 (racemic) [isoproterenol, (±)-isoproterenol hydrochloride]
Effect on forskolin-stimulated cAMP levels at 1 µM (AmphiAmR11 [1]; [10]): little or no effect
Effect on ERK1/2 phosphorylation at 1 µM (AmphiAmR11 [2]; [9]): little or no effect

NCC(O)c1ccc(O)cc1 (racemic) [octopamine, (±)-p-octopamine hydrochloride]
EC50 (AmphiAmR11 [1]; [8]): 1.3 µM
Effect on forskolin-stimulated cAMP levels following pertussis toxin treatment (AmphiAmR11 [3]; [11]): did not induce an increase
Effect on ERK1/2 phosphorylation at 10 nM (AmphiAmR11 [2]; 10 nM biogenic amine, 5 min): not able to increase
Calcium response at 10 nM (AmphiAmR11 [4]): less effective than dopamine

CC(N)c1ccccc1 (racemic) [phenylethylamine, (±)-1-phenylethylamine]
EC50 (AmphiAmR11 [1]; [8]): 0.0165 µM
Concentrations coupling AmphiAmR11 to an increase in cAMP levels (AmphiAmR11 [3]; after pertussis toxin): above 1 µM
Effect on forskolin-stimulated cAMP levels following pertussis toxin treatment (AmphiAmR11 [3]; [11]): increase in forskolin-stimulated cAMP levels
Concentration dependence of increase in forskolin-stimulated cAMP levels following pertussis toxin (AmphiAmR11 [3]; [12]): concentration-dependent effects
EC50 (AmphiAmR11 [2]; 5 min stimulation, read-out: EC50 for inducing ERK1/2 phosphorylation): 0.0578 µM

CNCC(O)c1ccc(O)cc1 (racemic) [synephrine, (±)-synephrine]
EC50 (AmphiAmR11 [1]): 1.65 µM
Effect on forskolin-stimulated cAMP levels following pertussis toxin treatment (AmphiAmR11 [3]; [11]): did not induce an increase
Effect on ERK1/2 phosphorylation at 10 nM (AmphiAmR11 [2]; 10 nM biogenic amine, 5 min): not able to increase

COc1cc2ncc(-c3ccccc3)nc2cc1OC [AG1296, tyrphostin AG1296]
Effect of inhibitor on dopamine-induced ERK1/2 phosphorylation ([5]; 10 nM dopamine): neither inhibitor had a significant effect

COc1cc2ncnc(Nc3cccc(Cl)c3)c2cc1OC [AG1478, tyrphostin AG 1478]
Effect of inhibitor on dopamine-induced ERK1/2 phosphorylation ([5]; 10 nM dopamine): neither inhibitor had a significant effect

CC(C)(C)n1nc(-c2ccc(Cl)cc2)c2c(N)ncnc21 [PP2, 3-(4-chlorophenyl) 1-(1,1-dimethylethyl)-1H-pyrazolo[3,4-d]pyrimidin-4-amine]
Effect of inhibitor on dopamine-induced ERK1/2 phosphorylation ([5]; 10 nM dopamine): no effect

Cn1cc(C2=C(c3cn(CCCSC(=N)N)c4ccccc34)C(=O)NC2=O)c2ccccc21 [Ro 31-8220]
Effect of inhibitor on dopamine-induced ERK1/2 phosphorylation ([5]; 10 nM dopamine): near basal levels

Oc1cc2c(cc1O)[C@@H](c1ccccc1)CNCC2 [SKF38393, R(+)-1-phenyl-2,3,4,5-tetrahydro-(^1H)-3-benzazepine-7,8-diol]
EC50 (AmphiAmR11 [1]; [8]): 0.792 µM
Effect on ERK1/2 phosphorylation at 1 µM (AmphiAmR11 [2]; [9]): less effective than naphazoline, UK14,304 and quinpirole

N#CC(=C(N)Sc1ccccc1N)C(C#N)=C(N)Sc1ccccc1N [U0126, 1,4-Diamino-2,3-dicyano-1,4-bis(o-aminophenylmercapto)butadiene]
Effect of inhibitor on dopamine-induced ERK1/2 phosphorylation ([5]; 10 nM dopamine): abolished

Brc1c(NC2=NCCN2)ccc2nccnc12 [UK14,304, UK14304]
EC50 (AmphiAmR11 [1]): 0.35 µM
Effect on ERK1/2 phosphorylation at 1 µM (AmphiAmR11 [2]; [9]): most effective of the synthetic agonists

COc1cccc(OC)c1OCCNCC1COc2ccccc2O1 (stereo not drawn) [WB4101]
Decrease of forskolin-stimulated cAMP levels by antagonist in the absence of agonist (AmphiAmR11 [1]; [13]): could inhibit forskolin-stimulated cAMP levels
EC50 (AmphiAmR11 [1]; [8]): 0.032 µM
Agonist type at AmphiAmR11 (full or partial) (AmphiAmR11 [1]; cAMP assay): partial agonist
Inhibition of forskolin-stimulated cAMP levels (maximal) (AmphiAmR11 [1]; concentration-response curves, absence of other agonist): approximately 75%
Blocking effect on tyramine-induced response at reduced antagonist concentrations (AmphiAmR11 [6]; varying concentrations of antagonist): small blocking effect
Effect of antagonist on ERK1/2 phosphorylation in the absence of dopamine (AmphiAmR11 [2]): increase in ERK1/2 phosphorylation
Block of dopamine-induced ERK1/2 activation (AmphiAmR11 [7]): partial effect

CNC[C@H](O)c1ccc(O)c(O)c1 [adrenaline, (-)-adrenaline]
EC50 (AmphiAmR11 [1]): 1.34 µM
Concentration dependence of increase in forskolin-stimulated cAMP levels following pertussis toxin (AmphiAmR11 [3]): concentration-dependent effects
Concentrations coupling AmphiAmR11 to an increase in cAMP levels (AmphiAmR11 [3]): above 1 µM
Effect on forskolin-stimulated cAMP levels following pertussis toxin treatment (AmphiAmR11 [3]): increase in forskolin-stimulated cAMP levels
Effect on ERK1/2 phosphorylation at 10 nM (AmphiAmR11 [2]): not able to increase
Calcium response at 10 nM (AmphiAmR11 [4]): less effective than dopamine

Clc1cccc(Cl)c1N=C1NCCN1 [clonidine, clonidine hydrochloride]
EC50 (AmphiAmR11 [1]): 0.623 µM
Effect on ERK1/2 phosphorylation at 1 µM (AmphiAmR11 [2]): less effective than naphazoline, UK14,304 and quinpirole

NCCc1ccc(O)c(O)c1 [dopamine, dopamine hydrochloride]
EC50 (AmphiAmR11 [1]): 0.0167 µM
EC50 (AmphiAmR11 [3]): 0.47 µM
Concentrations coupling AmphiAmR11 to an increase in cAMP levels (AmphiAmR11 [3]; after pertussis toxin): less than 1 µM
Effect on forskolin-stimulated cAMP levels following pertussis toxin treatment (AmphiAmR11 [3]; [11]): increase in forskolin-stimulated cAMP levels
EC50 (AmphiAmR11 [2]): 0.00127 µM
Duration of ERK1/2 phosphorylation response after the peak (AmphiAmR11 [2]; 1 µM tyramine (level by 30 minutes) or 30 nM dopamine): more sustained ERK1/2 phosphorylation response
Time of peak ERK1/2 phosphorylation (AmphiAmR11 [2]; 1 µM tyramine or 30 nM dopamine): approximately 5 minutes
Fold more potent than tyramine in MAPK assay (AmphiAmR11 [2]; ratio of EC50 values): 10 fold
EC50 (AmphiAmR11 [4]): 0.00168 µM
Fold more potent than tyramine in calcium assay (AmphiAmR11 [4]; ratio of EC50 values): approximately 450 fold

NCCc1c[nH]cn1 [histamine, histamine dihydrochloride]
Effect on forskolin-stimulated cAMP levels at 1 µM (AmphiAmR11 [1]; [10]): no effect
Effect on ERK1/2 phosphorylation at 10 nM (AmphiAmR11 [2]; 10 nM biogenic amine, 5 min): not able to increase

CCN(CC)CCNC(=O)c1cc(Cl)c(N)cc1OC [metoclopramide, metoclopramide hydrochloride]
Block of tyramine-induced inhibition of forskolin-stimulated cAMP levels (AmphiAmR11 [6]; [13]): no significant blocking effect
Effect of antagonist on ERK1/2 phosphorylation in the absence of dopamine (AmphiAmR11 [2]): did not exhibit any agonistic properties
Block of dopamine-induced ERK1/2 activation (AmphiAmR11 [7]): no significant effect

NC[C@H](O)c1ccc(O)c(O)c1 [noradrenaline, (-)-noradrenaline hydrochloride]
EC50 (AmphiAmR11 [1]): 0.844 µM
Concentrations coupling AmphiAmR11 to an increase in cAMP levels (AmphiAmR11 [3]; after pertussis toxin): above 1 µM
Effect on forskolin-stimulated cAMP levels following pertussis toxin treatment (AmphiAmR11 [3]; [11]): increase in forskolin-stimulated cAMP levels
Concentration dependence of increase in forskolin-stimulated cAMP levels following pertussis toxin (AmphiAmR11 [3]; [12]): concentration-dependent effects
Effect on ERK1/2 phosphorylation at 10 nM (AmphiAmR11 [2]; 10 nM biogenic amine, 5 min): not able to increase
Calcium response at 10 nM (AmphiAmR11 [4]): less effective than dopamine

CNC[C@H](O)c1cccc(O)c1 [phenylephrine, (R)-(-)-phenylephrine hydrochloride]
Effect on forskolin-stimulated cAMP levels at 1 µM (AmphiAmR11 [1]; [10]): little or no effect
Effect on ERK1/2 phosphorylation at 1 µM (AmphiAmR11 [2]; [9]): little or no effect

pertussis toxin
Effect of pertussis toxin treatment on amine-mediated decreases in forskolin-stimulated cAMP levels (AmphiAmR11 [3]; pertussis toxin 200 ng/mL, 16 hours): inhibit the amine-mediated decreases
Effect of pertussis toxin on tyramine- and dopamine-induced ERK1/2 phosphorylation at multiple time points ([5]; pertussis toxin 200 ng/mL, 16 hours, 1 µM tyramine, 30 nM dopamine): abolished
Effect of pertussis toxin on ERK1/2 response at 5 minutes of dopamine stimulation ([5]; pertussis toxin 200 ng/ml, 16 hours, 10 nM dopamine): abolished
